Values quoted from earlier work in patent US12514855B2 (IRR, Inc., priority 2020, dated 2026).

What was measured:
[1] = test system: histamine induced wheal and flare
[2] = in vivo
H1 receptor = H1 receptor (Homo sapiens, UniProt P35367); conditions: in an acidic pH
[3] = in vivo; remark: listed apart in the source
[4] = with warfarin, theophylline, digoxin, terfenadine, oral contraceptives, or prednisone
[5] = airway epithelial cells from nose and lung

Sequence of H1 receptor (P35367 whole entry): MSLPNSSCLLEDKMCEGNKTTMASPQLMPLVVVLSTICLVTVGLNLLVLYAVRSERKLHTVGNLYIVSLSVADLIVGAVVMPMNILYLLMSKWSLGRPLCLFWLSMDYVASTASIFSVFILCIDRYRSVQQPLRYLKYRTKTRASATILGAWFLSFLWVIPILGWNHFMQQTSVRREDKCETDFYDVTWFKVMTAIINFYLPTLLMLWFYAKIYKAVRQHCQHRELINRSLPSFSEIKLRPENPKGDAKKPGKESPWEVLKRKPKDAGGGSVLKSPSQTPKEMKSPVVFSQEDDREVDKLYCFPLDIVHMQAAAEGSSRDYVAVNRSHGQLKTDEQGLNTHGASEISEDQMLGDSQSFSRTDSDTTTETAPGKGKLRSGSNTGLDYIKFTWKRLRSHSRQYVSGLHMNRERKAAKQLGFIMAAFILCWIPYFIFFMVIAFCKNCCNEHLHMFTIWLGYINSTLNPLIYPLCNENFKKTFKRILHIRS

time to steady state level [2] | receptor affinity over first generation mepyramine (H1 receptor) | dose that can be safely administered [3] | drug interactions [4] | SMILES | potency through histamine induced wheal and flare data ([1]; compared with modern generation antihistamines) | effectiveness versus fexofenadine ([1]; levocetirizine 5 mg per day vs fexofenadine 180 mg per day) | HRV viral replication (human rhinovirus (HRV); [5]) | HRV-induced ICAM-1 (human rhinovirus (HRV); [5]) | HRV-induced cytokine expression (human rhinovirus (HRV); [5]) | levels of HRV-induced increases in ICAM-1 (human rhinovirus (HRV); levocetirizine added before, after, or at the time of the HRV infection)
40 h | 5 × | up to 30 mg/day |  | O=C(O)COCCN1CCN([C@H](c2ccccc2)c2ccc(Cl)cc2)CC1 [levocetirizine] | most potent of the five modern generation antihistamines | more effective than fexofenadine | inhibit | inhibit | inhibit | reduced
 |  |  | no drug interactions | CC(C)(O)c1ccccc1CC[C@@H](SCC1(CC(=O)O)CC1)c1cccc(/C=C/c2ccc3ccc(Cl)cc3n2)c1 [montelukast] |  |  |  |  |  | 
